Source: PubChem BioAssay (NCI)
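Exposure lasted 48 hours, with cells grown in 96-well plates and compounds tested at five concentrations. GI50: concentration for 50% inhibition of growth. TGI marks complete inhibition of growth.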

Columns and labels:
Test in all cases: growth of human tumour cells (NCI), 48 h
SF-539 CNS = test system: SF-539 CNS
UACC-62 melanoma = test system: UACC-62 melanoma
NCI-H226 lung = test system: NCI-H226 lung
HCT-116 colon = test system: HCT-116 colon
SN12C renal = test system: SN12C renal
LXFL 529 NSCLC = test system: LXFL 529 NSCLC
SNB-19 CNS = test system: SNB-19 CNS
M19-MEL melanoma = test system: M19-MEL melanoma
BT-549 breast = test system: BT-549 breast
SR leukemia = test system: SR leukemia

Compound | GI50 (SF-539 CNS) [µM] | TGI (SF-539 CNS) [µM] | GI50 (UACC-62 melanoma) [µM] | TGI (UACC-62 melanoma) [µM] | GI50 (NCI-H226 lung) [µM] | TGI (NCI-H226 lung) [µM] | GI50 (HCT-116 colon) [µM] | TGI (HCT-116 colon) [µM] | GI50 (SN12C renal) [µM] | TGI (SN12C renal) [µM] | GI50 (LXFL 529 NSCLC) [µM] | TGI (LXFL 529 NSCLC) [µM] | GI50 (SNB-19 CNS) [µM] | TGI (SNB-19 CNS) [µM] | TGI (M19-MEL melanoma) [µM] | GI50 (BT-549 breast) [µM] | TGI (BT-549 breast) [µM] | GI50 (SR leukemia) [µM] | TGI (SR leukemia) [µM] | GI50 (M19-MEL melanoma) [µM]
CC(=O)[CH-]C(=O)c1ccccc1.CC(=O)[CH-]C(=O)c1ccccc1.CC(C)CCCC(C)[C@H]1CCC2[C@@H]3CC=C4C[C@@H]([O-])CC[C@]4(C)C3CC[C@@]21C.CC[O-].[Ti+4] (stereo not given in full) | 34.1 | > 100 | 82.3 | > 100 | > 100 | > 100 | 45.7 | > 100 | 94.5 | > 100 | 33.1 | > 100 | 32.6 | > 100 |  |  |  |  |  | 
Cn1c(=O)nc2n(-c3cccc(Br)c3)c3ccccc3nc-2c1=O |  | 18.2 |  | 3.27 |  | 22.2 |  | 18.1 |  | 17.1 |  | 19.5 |  | 6.86 | 3.03 |  |  |  |  | 
Cc1ccccc1C(=O)c1ccccc1O |  | > 100 |  | > 100 |  | > 100 |  | > 100 |  | > 100 |  | > 100 |  | > 100 | > 100 |  |  |  |  | 
COc1cc2cc(Oc3ccc(NC(=O)Nc4cccc(C(F)(F)F)c4)cc3)c(C)nc2cc1OC | 2.48 | 8.74 | 1.84 | 10.9 | 1.8 | 5.6 | 1.46 | 5.84 | 2.06 | 16.3 |  |  | 2.19 | 15 |  | 1.43 | 6.18 | 1.17 | 3.33 | 
Cn1c(/C=C(\C#N)c2ccccc2)nc2c(N3CCOCC3)nc(Cl)nc21 | 1.42 | 2.74 | 1.19 | 2.52 | 1.52 | 3.4 | 0.178 | 0.432 | 1.12 | 2.48 |  |  | 1.6 | 3.09 |  | 0.711 | 2.07 | 0.393 | 2.1 | 
C#CCC(Cc1cnc2nc(N)nc(N)c2n1)c1ccc(C(=O)N[C@@H](CCC(=O)O)C(=O)O)cc1 (stereo not given in full) | < 0.01 | > 100 | < 0.01 | > 100 | < 0.01 | > 100 | < 0.01 | > 100 | < 0.01 | > 100 |  |  | < 0.0131 | > 100 |  | > 100 | > 100 | < 0.01 | > 100 | 
Nc1c(Br)cc(Br)c2c1[nH]c(=O)c1ccccc12 | 42 | > 100 | 46.8 | > 100 | 2.75 | 12.7 | 3.98 | 20.2 | 8.09 | > 100 |  |  | 10.2 | 57.5 |  | 7.05 | 41 | 2.39 | 5.91 | 
CCCc1cc2c(=O)c(C(=O)OC)c[nH]c2cc1N(CC)CC | 34 | > 100 | > 100 | > 100 | 34.6 | > 100 | 21.5 | 59.1 | 41.2 | > 100 |  |  | 28.6 | 77.8 |  | 39.8 | > 100 | 39.3 | > 100 | 
O=C1NC(O)C(c2c[nH]c3ccccc23)=C1c1c[nH]c2ccccc12 (stereo not given) | > 25 | > 25 | 8.01 | > 25 | > 25 | > 25 | > 25 | > 25 | > 25 | > 25 |  |  | > 25 | > 25 |  | > 25 | > 25 | > 23.7 | > 25 | 
CC(C)[C@H](CO)Nc1nc(Nc2ccc(C(=O)NCCNS(=O)(=O)c3cccc4c(N(C)C)cccc34)c(Cl)c2)c2ncn(C(C)C)c2n1 | 1.68 | 4.39 | 3.4 | > 100 | 2.75 | > 40 | 2.57 | > 100 | 2.81 | > 100 |  |  | 2.93 | > 100 |  | 1.96 | 7.46 | 1.87 | > 24.9 | 
CN(C)c1ccc([O][Bi]([Cl])[Cl])cc1 | > 100 | > 100 | > 100 | > 100 | > 100 | > 100 | > 100 | > 100 | > 100 | > 100 |  |  | > 100 | > 100 | > 100 |  |  | 80.1 | > 100 | > 100
O=C(Nc1cc(Cl)cc(Cl)c1)c1ccc(NC2=C(Cl)C(=O)N(Cc3ccc(Cl)cc3Cl)C2=O)cc1 | 6.94 | 25.3 | 18.3 | 38.2 | 14.4 | 35 | 4.06 | 16.9 | 24.9 | 60.6 |  |  | 21.4 | 83.4 |  | 1.57 | 7.22 | 0.0622 | 0.238 | 
CCOc1ccc(-c2nonc2NC(=O)c2cccc(C)c2)cc1OCC | 35.5 | > 100 | > 100 | > 100 | > 100 | > 100 | 35.7 | > 100 | > 100 | > 100 |  |  | 34.9 | > 100 |  | > 100 | > 100 | > 100 | > 100 | 
CC(=O)[CH-]C(=O)c1ccccc1.CC(=O)[CH-]C(=O)c1ccccc1.[Eu+3].[OH-].[OH3+] | > 100 | > 100 | > 100 | > 100 |  |  | > 100 | > 100 | > 100 | > 100 | > 100 | > 100 | > 100 | > 100 | > 100 |  |  |  |  | > 100
COC(=O)c1c2c(c(C)[n+]([O-])c1C)C(=O)C=C(NCc1ccc(F)c(Cl)c1)C2=O | 0.604 | 1.71 | 0.0325 | 0.662 | 1.26 | 3.26 | 0.13 | 1.03 | 0.31 | 1.28 |  |  | 0.801 | 2.07 |  | 1.01 | 2.43 | 0.381 | 6.73 | 
